These compounds were tested against T1, human GPR40 (Homo sapiens, UniProt O14842) (assay: Cell-based aequorin assay). Conditions: CHO cells stably transfected with GPR40 and aequorin; 0.01% HSA.
T1 construct: expressed in transfected cells; host or cells: CHO cells stably transfected with GPR40 and Aequorin
Description: Cell-based aequorin assays were employed to characterize the modulatory activity of compounds on the GPR40 signaling pathway. In an exemplary assay, CHO cells were stably transfected with both GPR40 and Aequorin (Euroscreen). Cells were detached from the tissue culture dish with 2 mL of trypsin (0.25% (w/v)). Trypsinization was halted with 28 mL of Hanks Buffered Salt Solution containing 20 mM Hepes (H/HBSS) and 0.01% fatty acid-free human serum albumin (HSA). Coelantrazine is added to 1 ug/mL, and the cells were incubated for 2 hours at room temperature. Compounds were dissolved in DMSO for preparation of 10 mM stock solutions. Compounds were diluted in H/HBSS containing 0.01% HSA. Serial dilutions of the test compounds were prepared to determine dose response.
Aequorin luminescence measurements were made using an EG&G Berthold 96-well luminometer, and the response was measured over a 20 second interval after cells and compounds were mixed. The maximum relative light units was plotted to determine dose response. The EC50 (effective concentration to reach 50% maximal response) was determined from the dose response plot.

T1 sequence (O14842 whole entry): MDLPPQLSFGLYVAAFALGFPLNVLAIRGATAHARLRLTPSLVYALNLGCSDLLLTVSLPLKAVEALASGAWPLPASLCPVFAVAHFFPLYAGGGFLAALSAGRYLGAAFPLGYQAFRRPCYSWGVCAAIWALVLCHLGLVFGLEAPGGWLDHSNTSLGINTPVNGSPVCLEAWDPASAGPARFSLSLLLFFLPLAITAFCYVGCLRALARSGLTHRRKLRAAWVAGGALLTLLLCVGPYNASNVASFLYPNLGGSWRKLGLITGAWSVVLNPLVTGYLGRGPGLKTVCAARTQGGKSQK

Row | EC50 | SMILES
1 | 1 to 10 µM | CO[C@@H](c1cc(COc2ccc3c(c2)[C@]2(CCC3)C[C@H]2C(=O)O)ccc1-c1cncc(F)c1)C(C)(C)C (racemic) [Example 138]
2 | 0.1 to 1 µM | COc1cc(-c2ccc(COc3ccc4c(c3F)[C@]3(CCC4)C[C@H]3C(=O)O)cc2[C@@H]2CCCC2(C)C)c(F)cn1 [Example 55]
3 | 0.1 to 1 µM | COc1cccc(-c2ccc(COc3ccc4c(c3)[C@]3(CCC4)C[C@H]3C(=O)O)cc2[C@H](OC)C(C)(C)C)c1F (racemic) [Example 134]
4 | 1 to 10 µM | CO[C@@H](c1cc(COc2ccc3c(c2)[C@]2(CCC3)C[C@H]2C(=O)O)ccc1-c1ccnc(C(F)(F)F)c1)C(C)(C)C (racemic) [Example 136]
5 | 0.1 to 1 µM | COc1ccc(F)c(-c2ccc(COc3ccc4c(c3)C3(CC4)CCC3C(=O)O)cc2[C@@H]2CCCC2(C)C)c1 (single isomer, unassigned) [Example 148]
6 | > 10 µM | COc1ccc(F)c(-c2ccc(COc3cc(F)c4c(c3F)[C@@]3(CC4)C[C@H]3C(=O)O)cc2[C@H]2CCCC2(C)C)c1 (single isomer, unassigned) [Example 36]
7 | 0.01 to 0.1 µM | COc1cc(-c2ccc(COc3ccc4c(c3)[C@]3(CCC4)C[C@H]3C(=O)O)cc2[C@@H]2CCCC2(C)C)c(F)cn1 [Example 48]
8 | 0.1 to 1 µM | COc1ccc(F)c(-c2ccc(COc3ccc4c(c3)[C@]3(CC4)CC[C@@H]3C(=O)O)cc2[C@@H]2CCCC2(C)C)c1 (single isomer, unassigned) [Example 146]
9 | 0.01 to 0.1 µM | COc1cc(-c2cc(F)c(COc3ccc4c(c3)[C@]3(CCC4)C[C@H]3C(=O)O)cc2[C@H]2CCCC2(C)C)c(F)cn1 (single isomer, unassigned) [Example 43]
10 | 0.1 to 1 µM | C=CC(C)(C)[C@H]1c2cc(COc3ccc4c(c3)[C@]3(CC4)C[C@H]3C(=O)O)ccc2-c2c(F)ccc(OC)c21 (racemic) [Example 21]
11 | 0.01 to 0.1 µM | COc1ccc(F)c(-c2ccc(COc3cc(F)c4c(c3F)[C@]3(CC4)C[C@H]3C(=O)O)cc2[C@@H](OC)C(C)(C)C)c1 (single isomer, unassigned) [Example 37]
12 | 1 to 10 µM | COc1ccc(F)c(-c2ccc(COc3cc(F)c4c(c3F)[C@@]3(CC4)C[C@@H]3C(=O)O)cc2[C@@H](OC)C(C)(C)C)c1 (single isomer, unassigned) [Example 38]
13 | > 10 µM | COc1ccc(F)c(-c2ccc(COc3ccc4c(c3)[C@]3(CC4)C[C@@H]3C(=O)O)cc2C2=CCCC2(C)C)c1 [Example 3]
14 | 0.1 to 1 µM | COc1ccc(F)c(-c2ccc(COc3ccc4c(c3)C3(CC4)CCC3C(=O)O)cc2C(OC)C(C)(C)C)c1 (single isomer, unassigned) [Example 147]
15 | 0.1 to 1 µM | COc1ccc(F)c(-c2ccc(COc3ccc4c(c3)[C@@]3(CC4)[C@H](C(=O)O)[C@@H]3C)cc2[C@@H]2CCCC2(C)C)c1 (single isomer, unassigned) [Example 140]
16 | > 10 µM | COc1ccc(F)c(-c2ccc(COc3ccc4c(c3)[C@]3(CC4)C[C@H]3C(=O)O)cc2-c2nncn2C(C)C)c1 [Example 29]
17 | 1 to 10 µM | COc1ccc(F)c(-c2ccc(COc3cc(F)c4c(c3F)[C@@]3(CC4)C[C@H]3C(=O)O)cc2[C@@H](OC)C(C)(C)C)c1 (single isomer, unassigned) [Example 40]

Row | EC50 | SMILES
18 | > 10 µM | COc1ccc(F)c(-c2ccc(COc3ccc4c(c3)[C@@]3(CC4)C[C@@H]3C(=O)O)cc2C2=CCCC2(C)C)c1 [Example 2]
19 | 1 to 10 µM | COc1ccc(F)c(-c2ccc(COc3ccc4c(c3)[C@]3(CCC4)CC[C@@H]3C(=O)O)cc2[C@@H](OC)C(C)(C)C)c1 (single isomer, unassigned) [Example 152]
20 | 1 to 10 µM | COc1cc(-c2ccc(COc3ccc4c(c3)[C@]3(CCC4)CC[C@@H]3C(=O)O)cc2[C@@H]2CCCC2(C)C)c(F)cn1 (single isomer, unassigned) [Example 153]
21 | 1 to 10 µM | COc1ccc(F)c(-c2ccc(COc3cc(F)c4c(c3F)[C@@]3(CC4)C[C@@H]3C(=O)O)cc2[C@H]2CCCC2(C)C)c1 (single isomer, unassigned) [Example 34]
22 | 1 to 10 µM | COc1ccc(F)c(-c2ccc(COc3ccc4c(c3)[C@]3(CC4)CC[C@@H]3C(=O)O)cc2[C@@H](OC)C(C)(C)C)c1 (single isomer, unassigned) [Example 145]
23 | 1 to 10 µM | COc1cc(-c2ccc(COc3cc(F)c4c(c3F)[C@]3(CC4)C[C@H]3C(=O)O)cc2[C@@H]2CCCC2(C)C)c(F)cn1 (single isomer, unassigned) [Example 42]
24 | > 10 µM | COc1ccc(F)c(-c2ccc(COc3ccc4c(c3)[C@@]3(CC4)C[C@@H]3C(=O)O)cc2[C@H]2CCCC2(C)C)c1 (single isomer, unassigned) [Example 10]
25 | 1 to 10 µM | COc1ccc(F)c(-c2ccc(COc3ccc4c(c3)[C@@]3(CC4)C[C@H]3C(=O)O)cc2C2=CCCC2(C)C)c1 [Example 4]
26 | 1 to 10 µM | C=CC1(c2cc(COc3ccc4c(c3)[C@]3(CC4)C[C@H]3C(=O)O)ccc2-c2cc(OC)ncc2F)CCCC1 [Example 26]
27 | > 10 µM | COc1ccc(F)c(-c2ccc(COc3cc(F)c4c(c3F)[C@]3(CC4)C[C@@H]3C(=O)O)cc2[C@H]2CCCC2(C)C)c1 (single isomer, unassigned) [Example 35]
28 | 1 to 10 µM | COc1ccc(F)c(-c2ccc(COc3ccc4c(c3)C3(CCC4)CCC3C(=O)O)cc2C(OC)C(C)(C)C)c1 (single isomer, unassigned) [Example 157]
29 | 1 to 10 µM | COCC1(c2cc(COc3ccc4c(c3)[C@]3(CC4)C[C@H]3C(=O)O)ccc2-c2cc(OC)ncc2F)CCCC1 [Example 27]
30 | 1 to 10 µM | COc1ccc(Cl)c(-c2ccc(COc3ccc4c(c3F)[C@@]3(CC4)C[C@@H]3C(=O)O)cc2[C@@H]2CCCC2(C)C)n1 (stereo in doubt) [Example 126]
31 | 1 to 10 µM | C=CC(C)(C)[C@@H]1c2cc(COc3ccc4c(c3)[C@]3(CC4)C[C@H]3C(=O)O)ccc2-c2c(F)ccc(OC)c21 (single isomer, unassigned) [Example 23]
32 | 1 to 10 µM | COc1ccc(F)c(-c2ccc(COc3cc(F)c4c(c3F)[C@]3(CC4)C[C@@H]3C(=O)O)cc2[C@@H](OC)C(C)(C)C)c1 (single isomer, unassigned) [Example 39]
33 | > 10 µM | COc1ccc(F)c(-c2ccc(COc3ccc4c(c3)[C@@]3(CCC4)C[C@@H]3C(=O)O)cc2C2=CCCC2(C)C)c1 [Example 50]

Row | SMILES | EC50
34 | COc1ccc(F)c(-c2cc(COc3ccc4c(c3)[C@@]3(CC4)C[C@@H]3C(=O)O)ccc2C(C)(C)C)c1 [Example 6] | > 10 µM
35 | COc1ccc(F)c(-c2ccc(COc3ccc4c(c3)[C@]3(CC4)C[C@H]3C(=O)O)cc2CC(C)(C)C)c1 [Example 13] | 0.01 to 0.1 µM
36 | CC1(C)CCC(C)(C)c2cc(COc3ccc4c(c3)[C@]3(CC4)C[C@H]3C(=O)O)ccc21 [Example 104, (1R,2R)-6′-((5,5,8,8-tetramethyl-5,6,7,8-tetrahydro-2-naphthalenyl)methoxy)-2′,3′-dihydrospiro[cyclopropane-1,1′-indene]-2-carboxylic acid] | > 10 µM
37 | C=CC(C)(C)c1cc(COc2ccc3c(c2)[C@]2(CC3)C[C@H]2C(=O)O)ccc1-c1cc(OC)ncc1F [Example 123, (1R,2R)-6′-(4-(5-Fluoro-2-methoxypyridin-4-yl)-3-(2-methylbut-3-en-2-yl)benzyloxy)-2′,3′-dihydrospiro[cyclopropane-1,1′-indene]-2-carboxylic acid] | 1 to 10 µM
38 | COc1ccc(F)c(-c2cc(COc3ccc4c(c3)[C@]3(CC4)C[C@@H]3C(=O)O)ccc2C(C)(C)C)c1 [Example 7] | > 10 µM
39 | COc1ccc(F)c(-c2cc(COc3ccc4c(c3)[C@@]3(CC4)C[C@H]3C(=O)O)ccc2C(C)(C)C)c1 [Example 8] | > 10 µM
40 | CO[C@@H](c1cc(COc2ccc3c(c2)[C@]2(CCC3)C[C@H]2C(=O)O)ccc1-c1cncs1)C(C)(C)C (racemic) [Example 135] | 1 to 10 µM
41 | O=C(O)[C@@H]1C[C@]12CCc1ccc(Oc3ccc(C(F)(F)F)c(Br)c3)cc12 [Example 124, (1R,2R)-6′-(3-Bromo-4-(trifluoromethyl)phenoxy)-2′,3′-dihydrospiro[cyclopropane-1,1′-indene]-2-carboxylic acid] | 1 to 10 µM
42 | CO[C@@H](c1cc(COc2ccc3c(c2)[C@]2(CCC3)C[C@H]2C(=O)O)ccc1Br)C(C)(C)C (racemic) [Example 132] | 1 to 10 µM
43 | COc1ccc(COc2ccc3c(c2)[C@]2(CCC3)C[C@H]2C(=O)O)cc1[C@@H]1CCCC1(C)C (single isomer, unassigned) [Example 128] | 1 to 10 µM
44 | COc1ccc(F)c(-c2cc(COc3ccc4c(c3)[C@]3(CC4)C[C@H]3C(=O)O)ccc2C(C)(C)C)c1 [Example 5] | 1 to 10 µM

Each compound was assayed against T1, human GPR40 (assay: Inositol phosphate accumulation assay). Conditions: A9 cell line stably transfected with GPR40; 1 hour at 37° C.; read-out: IP3 EC50.
Assay type: cell-based
Description: An A9 cell line stably transfected with GPR40 (A9_GPR40) was used in IP accumulation assays. A9_GPR40 cells were plated in 96-well plates containing 20,000 cells/well in DMEM containing 10% FBS. After the cells attached to the well surface, the media was replaced with inositol free DMEM containing 10% dialyzed FBS and 1 μCi, mL ^3H-inositol and incubated for 16 hours. Compounds were diluted in HBSS/10 mM LiCl containing a desired amount of HSA and added directly to cells. Following 1 hour incubation at 37° C., the media was replaced with 100 μL of 20 mM formic acid to quench the reaction. 50 μL of the extract was then added to 100 μL of SPA beads, incubated overnight, and measured on a TopCount the following day.

Row | EC50 | SMILES
45 | < 0.01 µM | COc1cc(-c2ccc(COc3ccc4c(c3F)[C@]3(CCC4)C[C@H]3C(=O)O)cc2[C@@H]2CCCC2(C)C)c(F)cn1 [Example 55]
46 | 0.01 to 0.1 µM | COc1cccc(-c2ccc(COc3ccc4c(c3)[C@]3(CCC4)C[C@H]3C(=O)O)cc2[C@H](OC)C(C)(C)C)c1F (racemic) [Example 134]
47 | 0.01 to 0.1 µM | COc1ccc(F)c(-c2ccc(COc3ccc4c(c3)C3(CC4)CCC3C(=O)O)cc2[C@@H]2CCCC2(C)C)c1 (single isomer, unassigned) [Example 148]
48 | < 0.01 µM | COc1cc(-c2ccc(COc3ccc4c(c3)[C@]3(CCC4)C[C@H]3C(=O)O)cc2[C@@H]2CCCC2(C)C)c(F)cn1 [Example 48]

Row | SMILES | EC50
49 | COc1ccc(F)c(-c2ccc(COc3ccc4c(c3)[C@]3(CC4)C[C@H]3C(=O)O)cc2CC(C)(C)C)c1 [Example 13] | < 0.01 µM
